Data as given in patent US20080249105A1, “Pyrrolopyridine-Substituted Benzol Derivatives for Treating Cardiovascular Diseases” (Bayer Healthcare AG, priority 2003, published 2008).
pIC50: −log10 of the molar value.

The molecules below were run against T1, Rho kinase II (ROKα) (Rattus norvegicus, UniProt Q62868) (assay: Inhibition of recombinant Rho kinase II (ROKα), 33P phosphate uptake into S6 substrate peptide). Settings: recombinant Rho kinase II (Upstate Biotechnology), S6 phosphate-acceptor peptide, 33P-labelled ATP, 20 min at 37° C.
T1 construct: purchased Upstate Biotechnology
T1 sequence (Q62868 whole entry): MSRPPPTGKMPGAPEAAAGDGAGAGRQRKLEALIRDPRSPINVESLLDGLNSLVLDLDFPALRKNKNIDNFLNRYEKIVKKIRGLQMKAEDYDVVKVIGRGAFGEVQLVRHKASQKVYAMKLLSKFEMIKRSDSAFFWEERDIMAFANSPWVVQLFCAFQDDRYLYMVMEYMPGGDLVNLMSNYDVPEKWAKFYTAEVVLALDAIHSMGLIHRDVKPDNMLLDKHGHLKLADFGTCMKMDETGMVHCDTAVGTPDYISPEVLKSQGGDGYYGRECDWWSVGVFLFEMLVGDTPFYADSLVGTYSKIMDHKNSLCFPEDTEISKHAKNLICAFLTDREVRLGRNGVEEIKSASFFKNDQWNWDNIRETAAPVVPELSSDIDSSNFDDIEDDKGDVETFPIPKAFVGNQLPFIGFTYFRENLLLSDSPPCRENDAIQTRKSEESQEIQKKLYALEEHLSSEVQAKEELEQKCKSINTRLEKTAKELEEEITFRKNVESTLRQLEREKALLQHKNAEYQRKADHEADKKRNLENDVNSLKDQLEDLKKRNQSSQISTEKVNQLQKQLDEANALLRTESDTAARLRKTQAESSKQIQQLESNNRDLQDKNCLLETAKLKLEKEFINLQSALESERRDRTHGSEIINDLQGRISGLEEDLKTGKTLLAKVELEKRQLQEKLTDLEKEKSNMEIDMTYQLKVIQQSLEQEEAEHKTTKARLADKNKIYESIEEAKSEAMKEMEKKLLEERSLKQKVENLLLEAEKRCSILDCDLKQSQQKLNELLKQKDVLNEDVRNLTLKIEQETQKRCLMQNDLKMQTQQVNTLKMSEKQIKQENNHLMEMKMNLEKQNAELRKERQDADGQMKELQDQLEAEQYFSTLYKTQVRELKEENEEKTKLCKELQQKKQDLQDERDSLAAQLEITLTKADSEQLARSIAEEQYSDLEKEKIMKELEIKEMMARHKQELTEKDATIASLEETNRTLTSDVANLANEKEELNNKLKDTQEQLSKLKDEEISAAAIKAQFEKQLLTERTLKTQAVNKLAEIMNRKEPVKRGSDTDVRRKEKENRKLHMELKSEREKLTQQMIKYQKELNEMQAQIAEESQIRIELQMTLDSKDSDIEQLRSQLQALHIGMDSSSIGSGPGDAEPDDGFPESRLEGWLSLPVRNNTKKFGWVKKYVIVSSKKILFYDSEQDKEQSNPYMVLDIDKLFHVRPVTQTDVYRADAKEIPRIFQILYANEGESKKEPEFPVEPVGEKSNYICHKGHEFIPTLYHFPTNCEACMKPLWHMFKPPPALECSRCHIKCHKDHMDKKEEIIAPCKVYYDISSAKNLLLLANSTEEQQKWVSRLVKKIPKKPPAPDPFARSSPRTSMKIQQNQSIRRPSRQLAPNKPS
Format: biochemical
Method: The inhibition of the enzyme is investigated in an in vitro assay with recombinant Rho kinase II. The vessel-relaxing action is determined using phenylephrin-induced contractions of isolated rings of the saphenous artery of rabbits.
Inhibition of Recombinant Rho Kinase II (ROKα)
The activity of Rho kinase is determined by the uptake of ^33P phosphate into a substrate peptide. To this end, commercially available Rho kinase II (Upstate Biotechnology) is pre-incubated at 37° C. in the presence of the S6 phosphate-acceptor peptide with the test substances or a solvent control for 10 min. The kinase reaction is then started by addition of ^33P-labelled ATP. After 20 min at 37° C., the reaction is stopped by addition of H3PO4. Aliquots are pipetted onto filters and the filters are washed and then covered with scintillator. The radioactivity of the ^33P-labelled peptides bound to the filter is measured in a Micro-Beta counter. The IC50 value corresponds to the concentration of a test substance at which the Rho-kinase-catalysed uptake of ^33P into the peptide is inhibited by 50%, compared to a solvent control.

pIC50	Compound
7.31	CC(C)(C)NCc1ccc(C(=O)Nc2ccc(Oc3ccnc4[nH]ccc34)c(F)c2)cc1 [Example 15]
7.92	Cc1c[nH]c2nccc(Oc3ccc(NC(=O)CNC(C)(C)C)cc3F)c12 [Example 23]
7.57	CN(C)CCNC(=O)Nc1ccc(Oc2ccnc3[nH]ccc23)c(F)c1 [Example 40]
7.70	CN(C)CCOC(=O)Nc1ccc(Oc2ccnc3[nH]ccc23)c(F)c1 [Example 41]
